Laboratory results taken from patent US5252478A, “Thermostable mutants of neutral protease and means for their preparation” (Eniricerche S.p.A., priority 1990, dated 1993).
Residues, ends and D or L forms follow the SMILES beside them. *: point of attachment. Cbz = O=C(OCc1ccccc1)*

How the values were obtained:
Experiment in all cases: Kinetic parameters on synthetic peptide substrates (HPLC of hydrolysis products)
Type in all cases: biochemical
[1] = target: T1, B.subtilis neutral protease mutant 147 (Gly 147 → Ala) (Bacillus subtilis, UniProt P68736, G369A); details: 147 mutant; 37° C., 25 mM Tris-HCl, pH 7.0, 2.5 mM calcium acetate
T1 construct: made in house; host or cells: B. subtilis SMS 108 carrying pSM 374 (B. subtilis SMS 263)
Method: (§1) The kinetic parameters Km and Kcat of wild-type neutral protease and of the three mutants were determined on Z-Phe-Leu-Ala, Z-Ala-Leu-Ala, Z-Gly-Leu-Ala and Z-Val-Leu-Ala synthetic peptide substrates (Bachem, Bubendorf, CH).
(§2) The hydrolysis reactions were carried out at 37° C. in 0.6 ml of a solution containing 25 mM Tris-HCl, pH 7.0, and 2.5 mM calcium acetate, with the use of different concentrations of the substrate (from 0.2 to 20.0 mM) and of the enzyme (from 0.04 to 5 ug/ml).
(§3) 100 μl portions were withdrawn from the reaction mixtures at various time intervals, and 100 μl of a solution of H2 O:CH3 CN:H3 PO4 in a volumetric ratio of 64:34:1 were added and the mixture centrifuged at 14,000 rpm for 5 minutes.
(§4) 20 μl of the supernatant liquid thus obtained were then loaded into a VYDAC® 218 TP S415 HPLC column (4.6×150 mm, 10 μm particles) and the hydrolysis products (Z-Phe, Z-Ala, Z-Val and Z-Gly) were separated by isocratic elution at a flow rate of 1.5 ml/minute with the use of solutions A (0.05% H3 PO4, v/v) and B (H2 O:CH3 CN:H3 PO4, 4.95:95.0:0.05 v/v) in ratios which varied according to the substrate used.
(§5) The reaction products were measured as their absorbance at 220 nm and quantised by the integration of the elution peaks with the use of the System Gold program (Beckman).
(§6) Initial velocities (vi) and maximum velocities (Vmax) Km and Kcat were then found for each of the substrates with the use of the Michaelis-Manten equation [formula]

[2] = target: T2, B.subtilis neutral protease mutant 189 (Gly 189 → Ala) (Bacillus subtilis, UniProt P68736, G406A); details: 189 mutant; 37° C., 25 mM Tris-HCl, pH 7.0, 2.5 mM calcium acetate
T2 construct: made in house; host or cells: B. subtilis SMS 108 carrying pSM 375 (printed pSM 75; B. subtilis SMS 261)
Method: as §1, §2, §3, §4, §5, §6

[3] = target: T3, B.subtilis neutral protease double mutant 147/189 (Gly 147 → Ala, Gly 189 → Ala) (Bacillus subtilis, UniProt P68736, G369A/G406A); details: 147/189 mutant; 37° C., 25 mM Tris-HCl, pH 7.0, 2.5 mM calcium acetate
T3 construct: made in house; host or cells: B. subtilis SMS 108 carrying pSM 376 (B. subtilis SMS 262)
Method: as §1, §2, §3, §4, §5, §6

[4] = target: T4, B.subtilis neutral protease, wild type (PN w.t.) (Bacillus subtilis, UniProt P68736); parameters: unit not given beside the values; details: 37° C., 25 mM Tris-HCl, pH 7.0, 2.5 mM calcium acetate
T4 construct: made in house; host or cells: B. subtilis SMS 108 carrying pSM 127 (NRRL B-15900)
T4 sequence (P68736 222-521): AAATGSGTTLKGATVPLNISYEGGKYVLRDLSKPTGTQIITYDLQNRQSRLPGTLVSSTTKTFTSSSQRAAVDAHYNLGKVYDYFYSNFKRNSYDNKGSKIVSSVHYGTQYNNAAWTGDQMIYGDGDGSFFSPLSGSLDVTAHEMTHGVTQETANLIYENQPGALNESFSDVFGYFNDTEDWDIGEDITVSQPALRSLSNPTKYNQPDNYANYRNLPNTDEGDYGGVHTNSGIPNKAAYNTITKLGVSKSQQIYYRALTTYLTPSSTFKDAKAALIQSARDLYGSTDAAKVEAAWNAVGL
Method: as §1, §2, §3, §4, §5, §6

T3 sequence (P68736 222-521 G369A/G406A): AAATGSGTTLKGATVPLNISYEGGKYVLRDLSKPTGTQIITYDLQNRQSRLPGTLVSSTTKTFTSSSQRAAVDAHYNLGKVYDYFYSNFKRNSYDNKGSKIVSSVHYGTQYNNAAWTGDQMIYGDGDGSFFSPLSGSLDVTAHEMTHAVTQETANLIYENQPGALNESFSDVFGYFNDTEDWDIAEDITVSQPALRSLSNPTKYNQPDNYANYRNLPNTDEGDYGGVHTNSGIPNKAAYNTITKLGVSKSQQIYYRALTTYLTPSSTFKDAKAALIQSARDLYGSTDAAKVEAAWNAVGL
T2 sequence (P68736 222-521 G406A): as the sequence (P68736 222-521 G369A/G406A) above, with A148G counted along it
T1 sequence (P68736 222-521 G369A): as the sequence (P68736 222-521 G369A/G406A) above, with A185G counted along it

Structure (SMILES)	Kcat [1]	Km [1] [mM]	Kcat [2]	Km [2] [mM]	Kcat [3]	Km [3] [mM]	Kcat [4]
CC(C)C[C@H](NC(=O)CNC(=O)OCc1ccccc1)C(=O)N[C@@H](C)C(=O)O [Z--Gly--Leu--Ala, Z-Gly-Leu-Ala] (Cbz-Gly-Leu-Ala-OH)	105.8	35.3	1847	2.38	186.4	4.39	1150
CC(C)C[C@H](NC(=O)[C@H](C)NC(=O)OCc1ccccc1)C(=O)N[C@@H](C)C(=O)O [Z--Ala--Leu--Ala, Z-Ala-Leu-Ala] (Cbz-Ala-Leu-Ala-OH)	~3500	–	2694	1.53	1329	8.72	3005
CC(C)C[C@H](NC(=O)[C@H](Cc1ccccc1)NC(=O)OCc1ccccc1)C(=O)N[C@@H](C)C(=O)O [Z--Phe--Leu--Ala, Z-Phe-Leu-Ala] (Cbz-Phe-Leu-Ala-OH)	1933	9.36	2139	2.53	1038	0.95	1986
CC(C)C[C@H](NC(=O)[C@@H](NC(=O)OCc1ccccc1)C(C)C)C(=O)N[C@@H](C)C(=O)O [Z--Val--Leu--Ala, Z-Val-Leu-Ala] (Cbz-Val-Leu-Ala-OH)	3.76	24	13.12	0.96	7.61	6.97	6.12
